Data reported in US6737383B1, “Herbicidal oxadiazolidines” (priority 1999, dated 2004).

What was measured:
bamyardgrass = test: Test B flood test barnyardgrass; format: in vivo, Echinochloa crus-galli; conditions: Pre-emergence
Summary of the method: (§1)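 Flood test on plants grown to the 2-leaf stage; treated plants kept in greenhouse twelve to sixteen days, then visually rated against controls on a 0 (no effect) to 10 (complete control) scale.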

sugar beet = test: Test B pre/postemergence sugar beet; format: in vivo, Beta vulgaris; conditions: for Sugarbeets plant response rating: scale of 0 to 10 where 0 is no effect and 10 is complete control
Summary of the method: (§2)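 Herbicidal effect was estimated by eye on a ten-point control scale after plants spent twelve to sixteen days in a greenhouse following soil or foliar treatment. Foliar sprays targeted plants at one to four leaves; all doses were formulated in a non-phytotoxic solvent with surfactant.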

purple nutsedge = test: Test B pre/postemergence purple nutsedge; format: in vivo, Cyperus rotundus; conditions: for Nutsedge plant response rating: scale of 0 to 10 where 0 is no effect and 10 is complete control
Summary of the method: as §2

rice = test: Test B flood test rice; format: in vivo, Oryza sativa; conditions: Pre-emergence
Summary of the method: as §1

soybean = test: Test B pre/postemergence soybean; format: in vivo, Glycine max; conditions: for Soybean plant response rating: scale of 0 to 10 where 0 is no effect and 10 is complete control
Summary of the method: as §2

cocklebur = test: Test B pre/postemergence cocklebur; format: in vivo, Xanthium strumarium; conditions: for Cocklebur plant response rating: scale of 0 to 10 where 0 is no effect and 10 is complete control
Summary of the method: as §2

bedstraw = test: Test B pre/postemergence bedstraw; format: in vivo, Galium aparine
Summary of the method: as §2

duck salad = test: Test B flood test duck salad; format: in vivo, Heteranthera limosa; conditions: Pre-emergence
Summary of the method: as §1

blackgrass = test: Test B pre/postemergence blackgrass; format: in vivo, Alopecurus myosuroides
Summary of the method: as §2

corn = test: Test B pre/postemergence corn; format: in vivo, Zea mays; conditions: for Corn plant response rating: scale of 0 to 10 where 0 is no effect and 10 is complete control
Summary of the method: as §2

surinam grass = test: Test B pre/postemergence surinam grass; format: in vivo, Brachiaria decumbens
Summary of the method: as §2

velvetleaf = test: Test B pre/postemergence velvetleaf; format: in vivo, Abutilon theophrasti; conditions: for Velvetleaf plant response rating: scale of 0 to 10 where 0 is no effect and 10 is complete control
Summary of the method: as §2

wild oat = test: Test B pre/postemergence wild oat; format: in vivo, Avena fatua; conditions: for Wild oats plant response rating: scale of 0 to 10 where 0 is no effect and 10 is complete control
Summary of the method: as §2

rape = test: Test B pre/postemergence rape; format: in vivo, Brassica napus; conditions: for Rape plant response rating: scale of 0 to 10 where 0 is no effect and 10 is complete control
Summary of the method: as §2

smallflower flatsedge = test: Test B flood test smallflower flatsedge; format: in vivo, Cyperus difformis; conditions: Pre-emergence
Summary of the method: as §1

crabgrass = test: Test B pre/postemergence crabgrass; format: in vivo, Digitaria sanguinalis; conditions: for Crabgrass plant response rating: scale of 0 to 10 where 0 is no effect and 10 is complete control
Summary of the method: as §2

wheat = test: Test B pre/postemergence wheat; format: in vivo, Triticum aestivum; conditions: for Wheat plant response rating: scale of 0 to 10 where 0 is no effect and 10 is complete control
Summary of the method: as §2

[1] = Rate 62 g/ha, flood test species, visual evaluation after twelve to sixteen days
[2] = Rate 125 g/ha, flood test species, scale 0 to 10 where 0 is no effect and 10 is complete control
[3] = Rate 250 g/ha, flood-test species, scale 0 to 10, 0 is no effect, 10 is complete control
[4] = Rate 500 g/ha, flood test species, scale 0 to 10 (0 no effect, 10 complete control)
[5] = Postemergence, Rate 125 g/ha, scale 0 to 10, 0 is no effect, 10 is complete control
[6] = Preemergence, Rate 62 g/ha, scale 0 to 10 (0 no effect, 10 complete control)
[7] = Rate 500 g/ha, Postemergence, scale 0 to 10, 0 no effect, 10 complete control
[8] = Preemergence, Rate 500 g/ha, scale of 0 to 10 where 0 is no effect and 10 is complete control
[9] = Rate 62 g/ha, Postemergence, scale of 0 to 10 where 0 is no effect and 10 is complete control
[10] = Rate 250 g/ha, Postemergence, scale of 0 to 10 where 0 is no effect and 10 is complete control
[11] = Preemergence, Rate 250 g/ha, scale of 0 to 10 where 0 is no effect and 10 is complete control

## CC(C)N(C(=O)n1oc(=O)n(C2CCCCCC2)c1=O)c1ccccc1 [Compound 341]
bamyardgrass; [1]
  Plant response rating, Barnyardgrass (0 to 10 scale, 0 is no effect, 10 is complete control): 2
bamyardgrass; [2]
  Barnyardgrass plant response rating: 8
bamyardgrass; [3]
  Barnyardgrass plant response rating: 9
bamyardgrass; [4]
  Barnyardgrass plant response rating: 9
Sugar beet; [5]
  Plant response rating, Sugarbeets: 0
Sugar beet; [6]
  Plant response rating, Sugarbeets: 0
Sugar beet; Preemergence, Rate 125 g/ha
  Sugarbeets plant response rating (0 to 10 scale): 0
Sugar beet; Preemergence, Rate 250 g/ha
  Sugarbeets plant response rating: 0
Sugar beet; Preemergence, Rate 500 g/ha
  Sugarbeets plant response rating: 0
Sugar beet; Rate 62 g/ha, Postemergence
  Sugarbeets plant response rating: 0
Sugar beet; [7]
  Plant response rating, Sugarbeets: 0
Purple nutsedge; [5]
  Plant response rating, Nutsedge: 0
Purple nutsedge; [6]
  Plant response rating, Nutsedge: 0
Purple nutsedge; Preemergence, Rate 125 g/ha
  Nutsedge plant response rating (0 to 10 scale): 0
Purple nutsedge; Preemergence, Rate 250 g/ha
  Nutsedge plant response rating: 0
Purple nutsedge; Preemergence, Rate 500 g/ha
  Nutsedge plant response rating: 0
Purple nutsedge; Rate 62 g/ha, Postemergence
  Nutsedge plant response rating: 0
Purple nutsedge; [7]
  Plant response rating, Nutsedge: 0
rice; [1]
  Plant response rating, Rice (0 to 10 scale, 0 is no effect, 10 is complete control): 0
rice; [2]
  Rice plant response rating: 0
rice; [3]
  Rice plant response rating: 0
rice; [4]
  Rice plant response rating: 2
soybean; [5]
  Plant response rating, Soybean: 2
soybean; [6]
  Plant response rating, Soybean: 0
soybean; Preemergence, Rate 125 g/ha
  Soybean plant response rating (0 to 10 scale): 0
soybean; Preemergence, Rate 250 g/ha
  Soybean plant response rating: 0
soybean; Preemergence, Rate 500 g/ha
  Soybean plant response rating: 0
soybean; Rate 62 g/ha, Postemergence
  Soybean plant response rating: 1
soybean; [7]
  Plant response rating, Soybean: 3
cocklebur; [5]
  Plant response rating, Cocklebur: 0
cocklebur; [6]
  Plant response rating, Cocklebur: 0
cocklebur; Preemergence, Rate 125 g/ha
  Cocklebur plant response rating (0 to 10 scale): 0
cocklebur; Preemergence, Rate 250 g/ha
  Cocklebur plant response rating: 0
cocklebur; Preemergence, Rate 500 g/ha
  Cocklebur plant response rating: 0
cocklebur; Rate 62 g/ha, Postemergence
  Cocklebur plant response rating: 0
bedstraw; [5]
  Plant response rating, Bedstraw: 0
bedstraw; [6]
  Plant response rating, Bedstraw: 0
bedstraw; Preemergence, Rate 125 g/ha
  Bedstraw plant response rating (0 to 10 scale): 0
bedstraw; [8]
  Bedstraw plant response rating: 2
bedstraw; [9]
  Bedstraw plant response rating: 0
bedstraw; [10]
  Plant response rating, Bedstraw: 4
bedstraw; [7]
  Plant response rating, Bedstraw: 8
Duck salad; [1]
  Plant response rating, Ducksalad (0 to 10 scale, 0 is no effect, 10 is complete control): 0
Duck salad; [2]
  Ducksalad plant response rating: 0
Duck salad; [3]
  Ducksalad plant response rating: 0
Duck salad; [4]
  Ducksalad plant response rating: 3
blackgrass; [5]
  Plant response rating, Blackgrass: 0
blackgrass; [6]
  Plant response rating, Blackgrass: 0
blackgrass; Preemergence, Rate 125 g/ha
  Blackgrass plant response rating (0 to 10 scale): 2
blackgrass; [11]
  Blackgrass plant response rating: 6
blackgrass; [8]
  Blackgrass plant response rating: 7
blackgrass; [9]
  Blackgrass plant response rating: 0
blackgrass; [10]
  Plant response rating, Blackgrass: 2
blackgrass; [7]
  Plant response rating, Blackgrass: 2
corn; [5]
  Plant response rating, Corn: 0
corn; [6]
  Plant response rating, Corn: 0
corn; Preemergence, Rate 125 g/ha
  Corn plant response rating (0 to 10 scale): 0
corn; Preemergence, Rate 250 g/ha
  Corn plant response rating: 0
corn; Preemergence, Rate 500 g/ha
  Corn plant response rating: 0
corn; Rate 62 g/ha, Postemergence
  Corn plant response rating: 0
corn; [7]
  Plant response rating, Corn: 0
Surinam grass; [5]
  Plant response rating, B. signalgrass: 0
Surinam grass; [6]
  Plant response rating, B. signalgrass: 0
Surinam grass; Preemergence, Rate 125 g/ha
  B. signalgrass plant response rating (0 to 10 scale, 0 is no effect, 10 is complete control): 0
Surinam grass; [11]
  B. signalgrass plant response rating: 0
Surinam grass; [8]
  B. signalgrass plant response rating: 0
Surinam grass; [9]
  B. signalgrass plant response rating: 0
Surinam grass; [10]
  Plant response rating, B. signalgrass: 0
Surinam grass; [7]
  Plant response rating, B. signalgrass: 2
velvetleaf; [5]
  Plant response rating, Velvetleaf: 0
velvetleaf; [6]
  Plant response rating, Velvetleaf: 0
velvetleaf; Preemergence, Rate 125 g/ha
  Velvetleaf plant response rating (0 to 10 scale): 0
velvetleaf; Preemergence, Rate 250 g/ha
  Velvetleaf plant response rating: 0
velvetleaf; Preemergence, Rate 500 g/ha
  Velvetleaf plant response rating: 2
velvetleaf; Rate 62 g/ha, Postemergence
  Velvetleaf plant response rating: 0
velvetleaf; [7]
  Plant response rating, Velvetleaf: 2
Wild oat; [5]
  Plant response rating, Wild oats: 0
Wild oat; [6]
  Plant response rating, Wild oats: 0
Wild oat; Preemergence, Rate 125 g/ha
  Wild oats plant response rating (0 to 10 scale): 0
Wild oat; Preemergence, Rate 250 g/ha
  Wild oats plant response rating: 0
Wild oat; Preemergence, Rate 500 g/ha
  Wild oats plant response rating: 2
Wild oat; Rate 62 g/ha, Postemergence
  Wild oats plant response rating: 0
Wild oat; [7]
  Plant response rating, Wild oats: 3
rape; [5]
  Plant response rating, Rape: 0
rape; [6]
  Plant response rating, Rape: 0
rape; Preemergence, Rate 125 g/ha
  Rape plant response rating (0 to 10 scale): 0
rape; Preemergence, Rate 250 g/ha
  Rape plant response rating: 0
rape; Preemergence, Rate 500 g/ha
  Rape plant response rating: 0
rape; Rate 62 g/ha, Postemergence
  Rape plant response rating: 0
rape; [7]
  Plant response rating, Rape: 2
Smallflower flatsedge; [1]
  Plant response rating, S. Flatsedge (0 to 10 scale, 0 is no effect, 10 is complete control): 1
Smallflower flatsedge; [2]
  S. Flatsedge plant response rating: 4
Smallflower flatsedge; [3]
  S. Flatsedge plant response rating: 9
Smallflower flatsedge; [4]
  S. Flatsedge plant response rating: 9
crabgrass; [5]
  Plant response rating, Crabgrass: 0
crabgrass; [6]
  Plant response rating, Crabgrass: 2
crabgrass; Preemergence, Rate 125 g/ha
  Crabgrass plant response rating (0 to 10 scale): 2
crabgrass; Preemergence, Rate 250 g/ha
  Crabgrass plant response rating: 2
crabgrass; Preemergence, Rate 500 g/ha
  Crabgrass plant response rating: 8
crabgrass; Rate 62 g/ha, Postemergence
  Crabgrass plant response rating: 0
crabgrass; [7]
  Plant response rating, Crabgrass: 2
wheat; [5]
  Plant response rating, Wheat: 0
wheat; [6]
  Plant response rating, Wheat: 0
wheat; Preemergence, Rate 125 g/ha
  Wheat plant response rating (0 to 10 scale): 0
wheat; Preemergence, Rate 250 g/ha
  Wheat plant response rating: 0
wheat; Preemergence, Rate 500 g/ha
  Wheat plant response rating: 0
wheat; Rate 62 g/ha, Postemergence
  Wheat plant response rating: 0
wheat; [7]
  Plant response rating, Wheat: 0
